Values quoted from earlier work as cited in patent US8217079B2 (priority 2010, dated 2012).

System: PVR-1 gene expression
Settings: sub-micromolar concentrations; peripheral blood of JAK2^V617F PV patients; cited from earlier work

Structure (SMILES): CCN(CC)Cc1ccc2cc(COC(=O)Nc3ccc(C(=O)NO)cc3)ccc2c1.Cl [ITF2357, Diethyl-[6-(4-hydroxycarbamoyl-phenylcarbamoyloxymethyl)-naphthalen-2-ylmethyl]-ammonium chloride]
- PVR-1 gene expression in granulocytes: down-modulate
